Test results reported in patent US20180244653A1, “SELECTIVE ALPHA-7 NICOTINIC RECEPTOR AGONISTS AND METHODS FOR MAKING AND USING THEM” (THE REGENTS OF THE UNIVERSITY OF CALIFORNIA, priority 2015, published 2018).
Where “and” joins values, the source holds several entries; their conditions need not be identical. Identical values can stand only once. Entries after “also recorded” stand apart in the source; their conditions may differ. Like-named read-outs stand apart in the source and are kept apart here.

Assays:
5HT3A receptors [1] = target: T1, 5HT3A receptors (Mus musculus, UniProt P23979); assay: Intact cell competitive radioligand binding assay ([3H]-granisetron, SPA), LGIC-CNiFERs; settings: >10 = did not pass initial screen at 10 μM
T1 construct: expressed in transfected cells; host or cells: HEK293 cells co-expressing TN-XXL
T1 sequence (P23979 24-489): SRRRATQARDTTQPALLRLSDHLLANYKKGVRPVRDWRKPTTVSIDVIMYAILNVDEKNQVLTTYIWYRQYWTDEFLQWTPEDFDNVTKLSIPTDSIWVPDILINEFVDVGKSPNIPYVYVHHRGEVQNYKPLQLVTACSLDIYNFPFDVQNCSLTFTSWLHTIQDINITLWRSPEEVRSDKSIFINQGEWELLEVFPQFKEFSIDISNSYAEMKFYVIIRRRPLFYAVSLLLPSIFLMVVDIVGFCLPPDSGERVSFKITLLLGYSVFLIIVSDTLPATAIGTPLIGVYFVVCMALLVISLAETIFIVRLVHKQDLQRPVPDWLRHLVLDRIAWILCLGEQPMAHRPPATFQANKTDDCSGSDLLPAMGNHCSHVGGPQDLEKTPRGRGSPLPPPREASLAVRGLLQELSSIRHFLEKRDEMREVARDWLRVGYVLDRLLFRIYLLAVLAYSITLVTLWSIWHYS

5HT3A receptors [2] = target: T1, 5HT3A receptors; assay: FRET functional assay (agonist/antagonist) using LGIC-CNiFERs; type: cell-based; settings: for Kd / Antagonist KA ± SD, 5HT3A: competitive antagonist (^C), vs 5-HT; for Kd: read-out: Antagonist KA ± SD, 5HT3A; for Functional properties at 5HT3A receptors (agonist / antagonist, type): functional screening and characterization; for EC50: read-out: Agonist EC50 ± SD, 5HT3A
Method: (§1) Initially, the agonist properties of tested compounds were assessed directly. […] All α7-nAChR functional assays were performed in the presence of PNU-120596, an α7-nAChR positive allosteric modulator (PAM), to increase signal and delay the sensitization state of α7-nAChRs enabling the measurement of more prolonged FRET signals.^29 Compounds having agonist responses of >0.20 were determined for EC50, and compounds having inhibition fraction of >0.50 were determined for KA.^25 EC50>13.3 μM and KA>10 μM which are a screening concentration for agonist and antagonist, respectively were reported compounds not taken for further in the screening of receptor occupation and responses.
(§2) Agonist and antagonist elicited responses were characterized using the above CNiFER cell expressing Cys-loop ligand-gated ion channel (LGIC) receptors. […] A 96-well black, clear-bottom microplate (Greiner bio-one, Germany) was coated with poly-D-lysine (Sigma-Aldrich, St. Louis, Mo.) 50 μL/well for 30 min and washed out with Phosphate-Buffered Saline (PBS) (Corning, Cellgro, Manassas, Va.) before plating the cells. After plating and incubation at 37° C. for 1 day, the media was replaced with 100 μL of artificial cerebrospinal fluid (aCSF: 121 mM NaCl, 5 mM KCl, 26 mM NaHCO3, 1.2 mM NaH2PO4H2O, 10 mM glucose, 2.4 mM CaCl2, 1.3 mM MgSO4, 5 mM HEPES, pH 7.4) for 4032 and 5HT3A receptors, whereas 10 μM PNU-120596 (Tocris Bioscience, Bristol, UK) in aCSF with 30 min incubation at 37° C. was used for α7-nAChR. The tested compounds were prepared in aCSF for all receptors except α7-nAChR, where 10 μM PNU-120596, a positive allosteric modulator (PAM) was used. The prepared compounds were added in a separate 96-well polypropylene plate (Costar, Corning, N.Y.). Experiments were conducted at 37° C. using 436-nm excitation. Emitted light was collected at 485 nm and 528 nm. Basal fluorescence was recorded for 30 s, followed by addition of 50 μL of ligand (first addition). Measurements were made at 3.84 s intervals for 2 min to measure the agonistic effect. […] Agonist and antagonist properties were sequentially screened at the final concentration of 13.3 and 10 μM, respectively, which differed from the screening concentration from intact cell binding assay (10 μM).

α4β2-nAChRs = target: T2, α4β2-nAChRs (Homo sapiens, UniProt P17787+P43681); assay: as above; type: cell-based; settings: for Functional properties at α4β2-nAChRs (agonist / antagonist, type): functional screening and characterization; for Antagonist KA ± SD, α4β2, non-competitive: non-competitive antagonist (^NC)
T2 construct: expressed in transfected cells; host or cells: HEKtsA201 cells co-expressing TN-XXL
Method: as §1, §2

α7-nAChRs = target: T3, α7-nAChRs (Homo sapiens, UniProt P36544); assay: as above; type: cell-based; settings: for EC50: in presence of 10 μM PNU-120596, * partial agonist, read-out: Agonist EC50 ± SD, α7
T3 construct: expressed in transfected cells; host or cells: HEKtsA201 cells co-expressing TN-XXL
Method: as §1, §2

[3] = target: α7/5HT3A chimera receptor (hα7/m5HT3A), used for α7-nAChRs (UniProt P23979+P36544, M226I/T225I); assay: Intact cell competitive radioligand binding assay ([3H]-(±)-epibatidine, SPA), LGIC-CNiFERs; settings: read-out: Kd ± SD, α7-nAChRs; >10 = did not pass initial screen at 10 μM
[4] = >10 = did not pass initial screen
[5] = read-out: Antagonist KA ± SD, α4β2
[6] = non-competitive antagonist (^NC)
[7] = competitive antagonist (^C), >10 = did not pass initial screen, vs (±)-epibatidine
[8] = competitive antagonist (^C), >10 = did not pass initial screen, vs (±)-epibatidine, read-out: Antagonist KA ± SD, α4β2
[9] = * partial agonist, >10 = did not pass initial screen

c1cc2cc(-c3cn(CCN4CCCCC4)nn3)ccc2[nH]1 [IND1, 5-(1-(2-(Piperidin-1-yl)ethyl)-1H-1,2,3-triazol-4-yl)-1H-indole]
Kd (5HT3A receptors [1]; read-out: Kd ± SD, 5HT3A): 5.52 µM
Kd (5HT3A receptors [2]; [4]): > 10 µM
Functional properties at 5HT3A receptors (agonist / antagonist, type) (5HT3A receptors [2]): agonist and antagonist responses were not observed
EC50 (5HT3A receptors [2]): > 10 µM
Kd (α4β2-nAChRs; [5]): > 10 µM
Fold increase in α7-nAChR agonist potency over lead compound TTIn-1 (α7-nAChRs): 3.5 fold
EC50 (α7-nAChRs; [4]): 0.17 µM

c1cc2cc(-c3cn(CCCN4CCCCC4)nn3)ccc2[nH]1 [IND2, 5-(1-(3-(Piperidin-1-yl)propyl)-1H-1,2,3-triazol-4-yl)-1H-indole]
Functional properties at 5HT3A receptors (agonist / antagonist, type) (5HT3A receptors [2]): agonist and antagonist responses were not observed
EC50 (α7-nAChRs; [4]): 2.2 µM
Kd [3]: 7.2 µM

c1cc2cc(-c3cn(CCCCN4CCCCC4)nn3)ccc2[nH]1 [IND3, 5-(1-(4-(Piperidin-1-yl)butyl)-1H-1,2,3-triazol-4-yl)-1H-indole]
EC50 (α7-nAChRs; [4]): 0.91 µM
Kd [3]: 13.8 µM

CN1[C@@H]2CCC[C@H]1CC(n1cc(-c3ccc4[nH]ccc4c3)nn1)C2 (stereo partly drawn) [IND7, 5-(1-((1R,5S)-9-Methyl-9-azabicyclo[3.3.1]nonan-3-yl)-1H-1,2,3-triazol-4-yl)-1H-indole]
Functional properties at 5HT3A receptors (agonist / antagonist, type) (5HT3A receptors [2]): agonist and antagonist responses were not observed
Functional properties at α4β2-nAChRs (agonist / antagonist, type) (α4β2-nAChRs): weak antagonistic properties
Kd (α4β2-nAChRs; read-out: Antagonist KA ± SD, α4β2, non-competitive): 22.2 µM
Kd [3]: 4.52 µM

CN1CCCC(n2cc(-c3ccc4[nH]ccc4c3)nn2)C1 (centres unmarked) [IND11, 5-(1-(1-Methylpiperidin-3-yl)-1H-1,2,3-triazol-4-yl)-1H-indole]
EC50 (α7-nAChRs; [4]): 3.3 µM
Kd [3]: 5.07 µM

CN(C)CCn1cc(-c2ccc3[nH]ccc3c2)nn1 [IND12, 5-(1-(2-(N,N-Dimethylamino)ethyl)-1H-1,2,3-triazol-4-yl)-1H-indole]
Functional properties at 5HT3A receptors (agonist / antagonist, type) (5HT3A receptors [2]): mix-competitive antagonist
EC50 (α7-nAChRs; [4]): 5.74 µM
Kd [3]: 7.68 µM

c1cc2cc(-c3cn(CCN4CCCC4)nn3)ccc2[nH]1 [IND13, 5-(1-(2-(Pyrrolidin-1-yl)ethyl)-1H-1,2,3-triazol-4-yl)-1H-indole]
EC50 (α7-nAChRs; [4]): 2.17 µM
Kd [3]: 4.84 µM

O=Cc1c[nH]c2ccc(-c3cn(CCN4CCCCC4)nn3)cc12 [PPRD5, 5-((1-(2-Piperidin-1-yl)ethyl)-1,2,3-triazol-4-yl)-indole-3-carbaldehyde]
Kd (5HT3A receptors [2]; [4]): > 10 µM
EC50 (5HT3A receptors [2]): > 10 µM
Kd (α4β2-nAChRs; [5]): > 10 µM
EC50 (α7-nAChRs; [4]): 1.05 ± 0.17 µM
Kd [3]: 3.27 µM

Cn1ccc2cc(-c3cn(CCN4CCCCC4)nn3)ccc21 [PPRD9, 1-(2-((1-Methyl-5-indolyl)-1,2,3-triazol-1-yl)ethyl)piperidine]
Antagonist KA ± SD, 5HT3A (5HT3A receptors [2]; [4]): 15.1 ± 4.0^C, μM
Functional properties at 5HT3A receptors (agonist / antagonist, type) (5HT3A receptors [2]): mixed (competitive,non-competive) antagonist
Antagonist KA ± SD, 5HT3A, non-competitive (5HT3A receptors [2]; [6]): 56.0 ± 31.0^NC μM
Antagonist KA ± SD, α4β2 (α4β2-nAChRs; [7]): 10.5 ± 3.1^C,^ μM
Functional properties at α4β2-nAChRs (agonist / antagonist, type) (α4β2-nAChRs): α4β2-nAChR antagonists; also recorded: mix-competitive antagonist
Antagonist KA ± SD, α4β2, non-competitive (α4β2-nAChRs): 25.5 ± 12.8^NC μM
EC50 (α7-nAChRs; [4]): 12.9 µM
Kd [3]: 12.1 µM

c1ccc2c(-c3cn(CCN4CCCCC4)nn3)c[nH]c2c1 [PPRD12]
Kd (5HT3A receptors [1]; read-out: Kd ± SD, 5HT3A): 2.55 µM and 2.6 µM
Antagonist KA ± SD, 5HT3A (5HT3A receptors [2]; [4]): 2.1 ± 0.3^C μM
Functional properties at 5HT3A receptors (agonist / antagonist, type) (5HT3A receptors [2]): competitive antagonist
Kd (α4β2-nAChRs; [8]): >10 µM
Antagonist KA ± SD, α7 (α7-nAChRs; [7]): 4.5 ± 1.5^C, μM
Functional properties at α7-nAChRs (agonist / antagonist) (α7-nAChRs; functional screening and characterization): weak and non-selective α7-nAChR antagonists
Antagonist KA ± SD, α7, non-competitive (α7-nAChRs; [6]): 11.3 ± 4.5^NC μM

COC(=O)c1cc(-c2cn(CCN3CCCCC3)nn2)ccc1O [PPRD14, Methyl 2-hydroxy-5-(1-(2-(piperidin-1-yl)ethyl)-1,2,3-triazol-4-yl)benzoate]
Kd (5HT3A receptors [2]; [4]): 1.44 µM and 1.4 µM
Functional properties at 5HT3A receptors (agonist / antagonist, type) (5HT3A receptors [2]): competitive antagonist
Kd (α4β2-nAChRs; [5]): > 10 µM
Kd (α7-nAChRs; competitive antagonist (^C), >10 = did not pass initial screen, vs (±)-epibatidine, read-out: Antagonist KA ± SD, α7): > 10 µM
EC50 (α7-nAChRs; [4]): > 10 µM
Kd [3]: > 10 µM

COC(=O)c1cc(-c2cn(CCN3CCCCC3)nn2)ccc1N [PPRD15, Methyl 2-amino-5-(1-(2-(piperidin-1-yl)ethyl)-1,2,3-triazol-4-yl)benzoate]
Kd (5HT3A receptors [2]; [4]): 6 µM
Functional properties at 5HT3A receptors (agonist / antagonist, type) (5HT3A receptors [2]): competitive antagonist
Kd (α4β2-nAChRs; [5]): > 10 µM
EC50 (α7-nAChRs; [4]): 3.1 µM
Kd [3]: 4.4 µM

c1cc2c(cc1-c1cn(C3CN4CCC3CC4)nn1)OCO2 (centres unmarked) [QND1, 3-(4-(Benzo-1,3-dioxol-5-yl)-1,2,3-triazol-1-yl)quinuclidine]
Kd (5HT3A receptors [1]; Kd ± SD, 5HT3A): 0.02 to 0.05 µM
EC50 (5HT3A receptors [2]): 0.3 ± 0.04 µM
Kd (α4β2-nAChRs; Antagonist KA ± SD, α4β2, competitive antagonist (^C), >10 = did not pass initial screen, vs (±)-epibatidine): > 10 µM
EC50 (α7-nAChRs; [4]): 0.12 ± 0.04 µM
Kd [3]: 0.16 µM

Nc1ccc(-c2cn(C3CN4CCC3CC4)nn2)cc1 (centres unmarked) [QND2, 3-(4-Aminophenyl-1,2,3-triazol-1-yl)quinuclidine]
Kd (5HT3A receptors [1]; read-out: Kd ± SD, 5HT3A): 1.21 µM
EC50 (5HT3A receptors [2]; [9]): 1.63 ± 0.29 µM
Functional properties at 5HT3A receptors (agonist / antagonist, type) (5HT3A receptors [2]): 5HT3A receptor agonist properties
Kd (α4β2-nAChRs; [8]): >10 µM
Fold increase in α7-nAChR agonist potency over lead compound TTIn-1 (α7-nAChRs): 20 fold
EC50 (α7-nAChRs; [4]): 0.05 µM

Clc1ccc(-c2cn(C3CN4CCC3CC4)nn2)cc1 (centres unmarked) [QND13, 3-(4-chlorophenyl-1,2,3-triazol-1-yl)quinuclidine]
EC50 (5HT3A receptors [2]; [9]): 4.9 ± 1.2 µM
Functional properties at 5HT3A receptors (agonist / antagonist, type) (5HT3A receptors [2]): 5HT3A receptor agonist properties
Antagonist KA ± SD, α4β2 (α4β2-nAChRs; [7]): 11.2 ± 2.6^C, μM
Functional properties at α4β2-nAChRs (agonist / antagonist, type) (α4β2-nAChRs): mix-competitive antagonist
Antagonist KA ± SD, α4β2, non-competitive (α4β2-nAChRs): 23 ± 6^NC μM
EC50 (α7-nAChRs; [4]): 1.01 µM
